Legend:
[1] = Inhibition of adrenergic receptor; parameters: species or system Homo sapiens
[2] = Inhibition of histaminergic receptor
[3] = Clearance in rat; format: ADME, organism-based; settings: in vivo
[4] = molecular target: Muscarinic acetylcholine receptor; test: Inhibition of muscarinic receptor; format: protein assay, Homo sapiens
[5] = molecular target: Voltage-gated inwardly rectifying potassium channel KCNH2 (Homo sapiens, UniProt Q12809); test: Inhibition of hERG receptor; format: toxicity
[6] = Inhibition of dopaminergic receptor; parameters: species or system Homo sapiens
[7] = Oral bioavailability in rat; format: ADME, organism-based; settings: in vivo
[8] = molecular target: Growth hormone secretagogue receptor type 1 (Homo sapiens, UniProt Q92847); test: Binding affinity to GHSR
Chain of Growth hormone secretagogue receptor type 1 (Q92847 whole entry): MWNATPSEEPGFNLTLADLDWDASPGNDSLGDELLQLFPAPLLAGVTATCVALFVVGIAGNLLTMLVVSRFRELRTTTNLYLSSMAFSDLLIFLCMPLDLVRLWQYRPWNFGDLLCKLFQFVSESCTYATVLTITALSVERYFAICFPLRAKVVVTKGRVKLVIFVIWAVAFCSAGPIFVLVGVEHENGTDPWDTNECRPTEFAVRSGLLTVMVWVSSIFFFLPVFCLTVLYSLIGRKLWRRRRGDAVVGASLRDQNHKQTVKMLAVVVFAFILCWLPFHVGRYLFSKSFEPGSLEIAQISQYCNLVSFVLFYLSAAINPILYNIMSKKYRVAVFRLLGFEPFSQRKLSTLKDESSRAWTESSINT

Chain of Voltage-gated inwardly rectifying potassium channel KCNH2 (Q12809 whole entry): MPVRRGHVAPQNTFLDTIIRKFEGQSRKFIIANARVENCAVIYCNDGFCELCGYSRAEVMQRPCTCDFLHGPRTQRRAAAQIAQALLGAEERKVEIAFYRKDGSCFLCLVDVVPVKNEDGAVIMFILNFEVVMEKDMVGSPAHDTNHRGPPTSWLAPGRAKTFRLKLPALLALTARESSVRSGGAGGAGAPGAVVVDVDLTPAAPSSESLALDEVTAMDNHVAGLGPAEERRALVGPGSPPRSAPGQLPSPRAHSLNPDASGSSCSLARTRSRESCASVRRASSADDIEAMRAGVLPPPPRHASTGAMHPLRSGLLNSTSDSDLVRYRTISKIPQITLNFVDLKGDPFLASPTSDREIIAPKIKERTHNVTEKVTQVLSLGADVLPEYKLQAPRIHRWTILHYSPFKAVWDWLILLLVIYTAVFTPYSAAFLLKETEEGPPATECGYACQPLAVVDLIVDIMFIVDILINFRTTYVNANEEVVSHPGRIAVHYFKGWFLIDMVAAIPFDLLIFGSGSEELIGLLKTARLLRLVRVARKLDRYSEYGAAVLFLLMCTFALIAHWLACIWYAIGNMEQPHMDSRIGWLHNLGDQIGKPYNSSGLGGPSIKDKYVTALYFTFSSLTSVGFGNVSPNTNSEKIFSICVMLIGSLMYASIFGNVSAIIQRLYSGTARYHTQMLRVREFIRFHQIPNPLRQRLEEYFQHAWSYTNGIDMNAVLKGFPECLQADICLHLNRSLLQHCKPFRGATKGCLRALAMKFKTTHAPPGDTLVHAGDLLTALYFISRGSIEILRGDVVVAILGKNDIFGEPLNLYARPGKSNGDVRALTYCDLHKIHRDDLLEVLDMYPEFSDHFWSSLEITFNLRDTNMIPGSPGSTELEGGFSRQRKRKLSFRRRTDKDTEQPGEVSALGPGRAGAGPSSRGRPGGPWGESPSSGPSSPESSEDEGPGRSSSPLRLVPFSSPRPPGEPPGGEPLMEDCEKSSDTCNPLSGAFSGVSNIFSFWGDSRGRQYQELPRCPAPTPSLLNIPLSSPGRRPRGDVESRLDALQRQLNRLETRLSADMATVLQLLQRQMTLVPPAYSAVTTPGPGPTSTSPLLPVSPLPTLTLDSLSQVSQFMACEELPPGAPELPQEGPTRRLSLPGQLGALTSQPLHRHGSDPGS

Row | clearance [3] [mL/min/kg] | bioavailability [7] [%] | IC50 [8] | SMILES | further results
1 | 21.7 | 19 |  | CCN(CC)c1ccc(NC(=O)C2(N(C)C(=O)OCC(C)C)CCc3cccc(OC)c3C2)cc1 (racemic) | IC50 [1]: > 33 µM; IC50 [2]: > 33 µM; IC50 [4]: > 33 µM; IC50 [5]: 6.1 µM; IC50 [6]: > 33 µM
2 |  | 3.8 | 2 nM (antagonist) | CCN(CC)c1ccc(NC(=O)C2(NC(=O)OCC(C)C)CCc3cccc(Cl)c3C2)cc1 (racemic) | 
3 |  |  | 11 nM (antagonist) | CCN(CC)c1ccc(NC(=O)C2(NC(=O)OCC(C)C)CCc3ccccc3C2)cc1 (racemic) | 

Continued, compound first:

Row | SMILES | clearance [3] [mL/min/kg] | bioavailability [7] [%] | IC50 [8] | further results
4 | CCN(CC)c1ccc(NC(=O)C2CCc3ccccc3C2)cc1 (racemic) |  |  | 2700 nM (antagonist) | 
5 | CCN(CC)c1ccc(NC(=O)C2(NC(=O)OC(C)(C)C)CCc3ccccc3C2)cc1 (racemic) |  |  | 120 nM (antagonist) | 
6 | CCN(CC)c1ccc(NC(=O)c2c(-c3c(Cl)cccc3Cl)noc2C)cc1 | 61.7 |  |  | 
